1 molecule from patent publication US20250296942A1, “Phosphonate-Based Coordination Complexes and Methods of Preparation and Use Thereof” (University of Puerto Rico, priority 2021, published 2025) can be followed below.

Values joined by “and” are separate entries in the source; they are usually repeats but may differ in a detail not shown here. Equal entries are not always repeated. Bounds are passed on as bounds.

A short description of data set [1]: AlamarBlue cytotoxicity, RISE and nano-Ca@RISE, hFOB 1.19. The note with it: human, hFOB 1.19 osteoblast cells, hFOB 1.19, read-out: Relative cell viability (% RCL). It is filed as cell-based, human. Here is the method: (§1) Cell culture methods. The MDA-MB-231 cell line was incubated with DMEM, 1% Pen-Strep, and 10% FBS at 37° C. in 5% CO2. The hFOB 1.19 cell line was incubated with 1:1 DMEM:F-12, 0.3 mg/mL G418, and 10% FBS at 34° C. in 5% CO2. Cell passages were performed weekly at 80% of cell confluency, media was exchanged twice a week.
(§2) Cell treatments. Both cell lines were treated with RISE (control) and nano-Ca@RISE (experimental). […]. Both cell lines (MDA-MB-231 and hFOB 1.19) were seeded in 96 well plates at 2.5×10^5 cell/mL. The cells were incubated for 24 h at 37° C. (MDA-MB-231) and 34° C. (hFOB 1.19), respectively. After the initial incubation period, both cell lines were treated with 100 μL of the RISE solutions previously prepared, and incubation was performed for 24, 48, and 72 h at the respective incubation temperatures. For both cell lines, media (MDA-MB-231: DMEM, Pen-Strep) and (hFOB 1.19: DMEM, F-12, G418) were used with control groups. AlamarBlue® assay was utilized to determine cell proliferation, for this, 10% of AlamarBlue® solution in PBS was prepared. Finally, the media was removed from the 96 well plates, 100 μL of 10% AlamarBlue® solution was added, and the cells were incubated for 4 h at the same previously mentioned conditions. After the AlamarBlue® assay, the fluorescence (λexc=560 nm, λem=590 nm) was evaluated employing an Infinite M200 PRO Tecan Microplate Reader. […]. The nonlinear regression method using Graph Pad Prism 8 was applied to fit the dose-response curves (% cell live vs concentration) and determined the IC50 values for RISE.
(§3) […]. Treatments at these concentrations were carried out at 24, 48, and 72 h for RISE and nano-Ca@RISE. The cell seeding and AlamarBlue® assay were completed as described above for the IC50 determination in both cell lines. […]. All experiments were performed in triplicates and the data was statistically treated using mean, standard deviation, and the coefficient of variation percentage (% CV).
(§4) Cell culture methods for the hFOB 1.19 cell line. This cell line was grown in 1:1 mixture of Ham's F12 Medium Dulbecco's Modified Eagle's Medium accompanied with 10% FBS and 0.3 mg/ml of geneticin (G418), incubated at 34° C. in 5% CO2. Cell passage and cell treatment were performed at 80% of cell confluency. The completed growth media was exchanged every two days.
(§5) Cell seeding. The MDA-MB-231 and hFOB 1.19 cell lines were seeded in 96 well plates at a density of 2.5×10^5 cells/mL, incubation was carried out for 24 h at 37° C. for MDA-MB-231 and 34° C. for osteoblast hFOB 1.19, in 5% CO2. The experiments were conducted in triplicates, three 96 well plates were made for each treatment period (24, 48, and 72 h).
(§6) Cell treatment. To determine the half-maximal inhibitory concentration (IC50), for both cell lines, two-fold serial dilutions of RISE (0-200 μM) were prepared. To assess the relative cell live (% RCL) were employed selected […] (50, 45, 40, and 35 μM) of RISE and nano-Ca@RISE for MDA-MB-231 and hFOB 1.19 cell lines. For this, after the seeding, 100 μL of RISE and nano-Ca@RISE were used to treat the cells. The control groups were treated with just media. Both cell lines were incubated for 24, 48, and 72 h after RISE and nano-Ca@RISE solutions were added.
(§7) AlamarBlue@assay. For both cell lines, after the 24, 48, and 72 h of treatment, the media was removed from the 96 well plates. Subsequently, 100 μL of 10% AlamarBlue® solution was added and incubation was carried out for 4 h. The fluorescence (λexc=570 nm, λem=590 nm) was measured employing an Infinite M200 PRO Tecan Microplate Reader. […]. The IC50 curves and the % RCL values were plotted using the Graph Pad Prism 8 program.

Data set [2] deals with normal osteoblast-like hFOB 1.19 cell line. The description is as above. The format is cell-based, human. The note with it: for IC50: Homo sapiens. The procedure: as §1, §2, §3, §4, §5, §6, §7
Data set [3] is described as follows: Hydroxyapatite (HA) binding assay of RISE and nano-Ca@RISE. The procedure: Hydroxyapatite (HA) binding assay. For the binding assay of nano-Ca@RISE, 20 mg of hydroxyapatite (HA) were exposed to 3 mL of a nano-Ca@RISE in PBS solution (0.5 mg/mL), for 0-11 days at 37° C. As control groups, RISE and HA, both in PBS, were employed. Samples were collected each day from 11 consecutive days. After each time point, the supernatant was collected and centrifuged (1,500 rpm, 8 min). […]
The capacity of nano-Ca@RISE to bind to the main constituent of the bone microenvironment, HA, under simulated physiological conditions, was evaluated through a binding assay. […]. […] […]. Therefore, a calibration curve of nano-Ca@RISE in PBS was employed for quantification of the nanocrystal's concentration in the supernatant after the binding assay.
For the nano-Ca@RISE binding assay, 20 mg of hydroxyapatite (HA), were added to 3.00 mL of nano-Ca@RISE (0.5 mg/mL) in PBS solution. HA in PBS mixture, and the binding of RISE to HA, were used as control groups. The samples were left for 0-11 days at 37° C. and 300 rpm. As a comparative method, additional binding assay for RISE “as received” was conducted employing the same parameters as for the nanocrystals. The selected time points were: 1, 2, 3, 4, 5, 7, 8, 9, 10, and 11 days. The supernatant was collected after each time point, then centrifuged (1,500 rpm, 8 min), and absorbance measurements were performed at 206 nm to determine the binding percentage of RISE from the nano-Ca@RISE to HA. FIGS. S8.6.1 and S8.6.2 illustrate the binding curves of RISE and nano-Ca@RISE to HA in PBS.

In the case of `O=P(O)(O)C(O)(Cc1cccnc1)P(=O)(O)O` [RISE, Monosodium risedronate hemipentahydrate], the viability at 24 h, 35 µM in data set [1] (35 μM, 24 h) is 100 ± 1%. In data set [1] (35 μM, 48 h), the viability at 48 h, 35 µM was found to be 101%. In data set [1] (35 μM, 72 h), the viability at 72 h, 35 µM came out at 100 ± 2%. The viability at 24 h, 40 µM in data set [1] (40 μM, 24 h) is 100 ± 1%. The viability at 48 h, 40 µM in data set [1] (40 μM, 48 h) stood at 100%. In data set [1] (40 μM, 72 h), the viability at 72 h, 40 µM amounted to 100 ± 1%. Further, the viability at 24 h, 45 µM in data set [1] (45 μM, 24 h) was 100 ± 1%. In addition, the viability at 48 h, 45 µM in data set [1] (45 μM, 48 h) stood at 100 ± 1%. For the same molecule, in data set [1] (45 μM, 72 h), the viability at 72 h, 45 µM is 99 ± 2%. Also, the viability at 24 h, 50 µM in data set [1] (50 μM, 24 h) turned out to be 99 ± 1%. Moreover, the viability at 48 h, 50 µM in data set [1] (50 μM, 48 h) came to 96 ± 4%. The viability at 72 h, 50 µM in data set [1] (50 μM, 72 h) was 98 ± 1%. The half-maximal inhibitory concentration (IC50) in data set [2] (24 h), in data set [2] (48 h) and in data set [2] (72 h) was above 200 µM each time. In addition, the cell death entry in data set [2] (hFOB 1.19, 35 and 40 μM, 24, 48, 72 h) is “no significant cell death”. Further, in data set [2] (hFOB 1.19, 45 and 50 μM, time not stated), the “% RCL” value is given as around 100%. The “time to reach maximum binding to HA” value in data set [3] (PBS) is listed as 8 days. Also, in data set [3] (PBS pH 7.40, 37 °C, 0-11 days), the “maximum binding to HA” value is reported as 76%. The “bound to HA” value in data set [3] (PBS pH 7.40, 37 °C, 1 day) is 18% and 17%.

One may read the viability as a read-out of living cells in per cent, often relative to untreated cells. Broadly, the IC50 is the concentration that inhibits the measured activity by half.
